# How the values were obtained:
# Assay in all cases: Kinase Hotspot radiolabel assay
# Type in all cases: biochemical
# Details in all cases: read-out: % Residual Activity
# CK2a = biological target: T1, CK2a (Homo sapiens, UniProt P68400)
# T1 construct: purchased Reaction Biology Corporation (Kinase HotSpot)
# Summary of the method: (§1)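 Step one: screen at 1 µM across 369 kinases (Hotspot, radiolabel detection). Step two: Ki determination for kinases with >90% inhibition.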
# SNRK = biological target: T2, SNRK (Homo sapiens, UniProt Q9NRH2)
# T2 construct: purchased Reaction Biology Corporation (Kinase HotSpot)
# Summary of the method: as §1
# MEK2 = biological target: T3, MEK2 (Homo sapiens, UniProt P36507)
# T3 construct: purchased Reaction Biology Corporation (Kinase HotSpot)
# Summary of the method: as §1
# DCAMKL2 = biological target: T4, DCAMKL2 (Homo sapiens, UniProt Q8N568)
# T4 construct: purchased Reaction Biology Corporation (Kinase HotSpot)
# Summary of the method: as §1
# DYRK4 = biological target: T5, DYRK4 (Homo sapiens, UniProt Q9NR20)
# T5 construct: purchased Reaction Biology Corporation (Kinase HotSpot)
# Summary of the method: as §1
# CDK17/cyclin Y (PCTK2) = biological target: T6, CDK17/cyclin Y (PCTK2) (Homo sapiens, UniProt Q00537)
# T6 construct: purchased Reaction Biology Corporation (Kinase HotSpot)
# Summary of the method: as §1
# RON/MST1R = biological target: T7, RON/MST1R (Homo sapiens, UniProt Q04912)
# T7 construct: purchased Reaction Biology Corporation (Kinase HotSpot)
# Summary of the method: as §1
# PLK3 = biological target: T8, PLK3 (Homo sapiens, UniProt Q9H4B4)
# T8 construct: purchased Reaction Biology Corporation (Kinase HotSpot)
# Summary of the method: as §1
# RET = biological target: T9, RET (Homo sapiens, UniProt P07949)
# T9 construct: purchased Reaction Biology Corporation (Kinase HotSpot)
# Summary of the method: as §1
# SIK2 = biological target: T10, SIK2 (Homo sapiens, UniProt Q9H0K1)
# T10 construct: purchased Reaction Biology Corporation (Kinase HotSpot)
# Summary of the method: as §1
# PIM1 = biological target: T11, PIM1 (Homo sapiens, UniProt P11309)
# T11 construct: purchased Reaction Biology Corporation (Kinase HotSpot)
# Summary of the method: as §1
# CDK1/cyclin B = biological target: T12, CDK1/cyclin B (Homo sapiens, UniProt P06493)
# T12 construct: purchased Reaction Biology Corporation (Kinase HotSpot)
# Summary of the method: as §1
# MLK2/MAP3K10 = biological target: T13, MLK2/MAP3K10 (Homo sapiens, UniProt Q02779)
# T13 construct: purchased Reaction Biology Corporation (Kinase HotSpot)
# Summary of the method: as §1
# EPHB2 = biological target: T14, EPHB2 (Homo sapiens, UniProt P29323)
# T14 construct: purchased Reaction Biology Corporation (Kinase HotSpot)
# Summary of the method: as §1
# OSR1/OXSR1 = biological target: T15, OSR1/OXSR1 (Homo sapiens, UniProt O95747)
# T15 construct: purchased Reaction Biology Corporation (Kinase HotSpot)
# Summary of the method: as §1
# CDK3/cyclin E = biological target: T16, CDK3/cyclin E (Homo sapiens, UniProt Q00526)
# T16 construct: purchased Reaction Biology Corporation (Kinase HotSpot)
# Summary of the method: as §1
# WNK2 = biological target: T17, WNK2 (Homo sapiens, UniProt Q9Y3S1)
# T17 construct: purchased Reaction Biology Corporation (Kinase HotSpot)
# Summary of the method: as §1
# MARK1 = biological target: T18, MARK1 (Homo sapiens, UniProt Q9P0L2)
# T18 construct: purchased Reaction Biology Corporation (Kinase HotSpot)
# Summary of the method: as §1
# CAMKK1 = biological target: T19, CAMKK1 (Homo sapiens, UniProt Q8N5S9)
# T19 construct: purchased Reaction Biology Corporation (Kinase HotSpot)
# Summary of the method: as §1
# MEK5 = biological target: T20, MEK5 (Homo sapiens, UniProt Q13163)
# T20 construct: purchased Reaction Biology Corporation (Kinase HotSpot)
# Summary of the method: as §1
# EPHA2 = biological target: T21, EPHA2 (Homo sapiens, UniProt P29317)
# T21 construct: purchased Reaction Biology Corporation (Kinase HotSpot)
# Summary of the method: as §1
# MYO3A = biological target: T22, MYO3A (Homo sapiens, UniProt Q8NEV4)
# T22 construct: purchased Reaction Biology Corporation (Kinase HotSpot)
# Summary of the method: as §1
# TYK2 = biological target: T23, TYK2 (Homo sapiens, UniProt P29597)
# T23 construct: purchased Reaction Biology Corporation (Kinase HotSpot)
# Summary of the method: as §1
# c-MER = biological target: T24, c-MER (Homo sapiens, UniProt Q12866)
# T24 construct: purchased Reaction Biology Corporation (Kinase HotSpot)
# Summary of the method: as §1
# PLK2 = biological target: T25, PLK2 (Homo sapiens, UniProt Q9NYY3)
# T25 construct: purchased Reaction Biology Corporation (Kinase HotSpot)
# Summary of the method: as §1
# TRKA = biological target: T26, TRKA (Homo sapiens, UniProt P04629)
# T26 construct: purchased Reaction Biology Corporation (Kinase HotSpot)
# Summary of the method: as §1
# GSK3b = biological target: T27, GSK3b (Homo sapiens, UniProt P49841)
# T27 construct: purchased Reaction Biology Corporation (Kinase HotSpot)
# Summary of the method: as §1
# FGFR2 = biological target: T28, FGFR2 (Homo sapiens, UniProt P21802)
# T28 construct: purchased Reaction Biology Corporation (Kinase HotSpot)
# Summary of the method: as §1
# RAF1 = biological target: T29, RAF1 (Homo sapiens, UniProt P04049)
# T29 construct: purchased Reaction Biology Corporation (Kinase HotSpot)
# Summary of the method: as §1
# RSK1 = biological target: T30, RSK1 (Homo sapiens, UniProt Q15418)
# T30 construct: purchased Reaction Biology Corporation (Kinase HotSpot)
# Summary of the method: as §1
# T12 sequence (P06493 whole entry): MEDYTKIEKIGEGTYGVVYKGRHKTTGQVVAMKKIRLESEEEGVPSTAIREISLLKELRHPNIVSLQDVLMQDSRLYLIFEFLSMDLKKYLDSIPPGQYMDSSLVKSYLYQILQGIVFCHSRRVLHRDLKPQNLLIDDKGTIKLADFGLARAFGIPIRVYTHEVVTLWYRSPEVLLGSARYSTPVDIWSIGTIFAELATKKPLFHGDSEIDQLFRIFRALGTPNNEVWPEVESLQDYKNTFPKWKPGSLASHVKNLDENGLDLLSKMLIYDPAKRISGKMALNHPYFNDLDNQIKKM
# T12 sequence (P14635 whole entry partner): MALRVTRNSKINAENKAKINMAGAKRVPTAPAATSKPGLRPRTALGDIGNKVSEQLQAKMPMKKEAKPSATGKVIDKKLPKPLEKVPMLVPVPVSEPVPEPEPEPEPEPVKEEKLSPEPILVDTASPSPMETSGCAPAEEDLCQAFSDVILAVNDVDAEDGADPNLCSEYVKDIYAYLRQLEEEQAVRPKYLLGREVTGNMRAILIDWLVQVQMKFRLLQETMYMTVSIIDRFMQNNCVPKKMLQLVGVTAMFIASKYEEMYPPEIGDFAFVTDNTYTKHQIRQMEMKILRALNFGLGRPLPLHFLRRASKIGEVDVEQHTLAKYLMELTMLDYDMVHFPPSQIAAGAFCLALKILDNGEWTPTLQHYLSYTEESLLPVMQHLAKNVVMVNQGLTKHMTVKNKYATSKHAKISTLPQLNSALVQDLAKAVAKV
# T23 sequence (P29597 whole entry): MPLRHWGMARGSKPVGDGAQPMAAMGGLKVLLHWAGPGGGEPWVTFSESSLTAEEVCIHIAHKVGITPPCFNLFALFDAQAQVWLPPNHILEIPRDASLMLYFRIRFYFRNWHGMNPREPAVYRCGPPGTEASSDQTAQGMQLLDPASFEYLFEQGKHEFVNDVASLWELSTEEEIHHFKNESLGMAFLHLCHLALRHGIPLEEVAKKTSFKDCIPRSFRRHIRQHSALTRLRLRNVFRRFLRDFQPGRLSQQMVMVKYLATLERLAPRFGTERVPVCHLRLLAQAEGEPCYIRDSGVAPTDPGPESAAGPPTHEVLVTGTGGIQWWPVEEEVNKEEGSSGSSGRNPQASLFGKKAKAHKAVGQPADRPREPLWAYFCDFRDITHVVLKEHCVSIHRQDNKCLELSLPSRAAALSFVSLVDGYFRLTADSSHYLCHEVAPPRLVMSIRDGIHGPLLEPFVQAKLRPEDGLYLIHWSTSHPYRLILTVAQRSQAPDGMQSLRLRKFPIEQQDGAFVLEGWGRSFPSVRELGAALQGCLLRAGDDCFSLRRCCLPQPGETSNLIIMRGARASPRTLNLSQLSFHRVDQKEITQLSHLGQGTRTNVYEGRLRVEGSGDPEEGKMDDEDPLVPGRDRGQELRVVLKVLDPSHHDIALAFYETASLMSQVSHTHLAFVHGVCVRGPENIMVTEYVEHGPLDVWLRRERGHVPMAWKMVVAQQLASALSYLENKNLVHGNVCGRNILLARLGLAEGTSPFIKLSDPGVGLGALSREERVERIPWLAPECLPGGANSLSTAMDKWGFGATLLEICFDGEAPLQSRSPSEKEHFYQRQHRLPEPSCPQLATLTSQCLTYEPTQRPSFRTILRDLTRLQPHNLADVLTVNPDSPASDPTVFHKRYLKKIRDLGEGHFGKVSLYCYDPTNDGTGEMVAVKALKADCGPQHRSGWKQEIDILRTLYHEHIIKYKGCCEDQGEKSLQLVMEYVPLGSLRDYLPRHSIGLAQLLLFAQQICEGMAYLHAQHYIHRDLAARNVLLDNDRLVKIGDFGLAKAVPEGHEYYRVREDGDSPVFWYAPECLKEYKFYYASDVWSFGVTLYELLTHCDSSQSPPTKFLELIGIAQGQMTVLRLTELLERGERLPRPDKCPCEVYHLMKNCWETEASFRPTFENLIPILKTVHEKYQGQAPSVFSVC
# T18 sequence (Q9P0L2 whole entry): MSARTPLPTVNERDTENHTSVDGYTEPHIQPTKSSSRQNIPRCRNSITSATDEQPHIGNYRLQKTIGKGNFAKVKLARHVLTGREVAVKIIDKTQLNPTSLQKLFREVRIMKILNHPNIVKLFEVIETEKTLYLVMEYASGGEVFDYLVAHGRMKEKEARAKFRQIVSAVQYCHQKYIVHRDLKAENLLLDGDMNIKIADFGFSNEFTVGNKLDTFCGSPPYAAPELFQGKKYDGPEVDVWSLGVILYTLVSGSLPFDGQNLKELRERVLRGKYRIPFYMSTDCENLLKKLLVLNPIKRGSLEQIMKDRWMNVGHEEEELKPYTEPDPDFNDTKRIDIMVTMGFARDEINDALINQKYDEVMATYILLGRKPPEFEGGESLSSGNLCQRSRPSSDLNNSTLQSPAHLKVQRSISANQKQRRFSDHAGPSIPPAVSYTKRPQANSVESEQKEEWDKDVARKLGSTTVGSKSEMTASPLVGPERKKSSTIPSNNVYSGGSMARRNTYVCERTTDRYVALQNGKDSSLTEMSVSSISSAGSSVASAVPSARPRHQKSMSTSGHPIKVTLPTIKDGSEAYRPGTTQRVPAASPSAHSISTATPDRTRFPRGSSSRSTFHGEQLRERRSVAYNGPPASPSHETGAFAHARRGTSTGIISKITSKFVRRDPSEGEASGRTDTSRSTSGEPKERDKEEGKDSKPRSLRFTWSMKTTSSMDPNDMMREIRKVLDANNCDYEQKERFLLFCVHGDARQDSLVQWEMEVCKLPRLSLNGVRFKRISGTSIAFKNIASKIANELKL
# T7 sequence (Q04912 25-1400): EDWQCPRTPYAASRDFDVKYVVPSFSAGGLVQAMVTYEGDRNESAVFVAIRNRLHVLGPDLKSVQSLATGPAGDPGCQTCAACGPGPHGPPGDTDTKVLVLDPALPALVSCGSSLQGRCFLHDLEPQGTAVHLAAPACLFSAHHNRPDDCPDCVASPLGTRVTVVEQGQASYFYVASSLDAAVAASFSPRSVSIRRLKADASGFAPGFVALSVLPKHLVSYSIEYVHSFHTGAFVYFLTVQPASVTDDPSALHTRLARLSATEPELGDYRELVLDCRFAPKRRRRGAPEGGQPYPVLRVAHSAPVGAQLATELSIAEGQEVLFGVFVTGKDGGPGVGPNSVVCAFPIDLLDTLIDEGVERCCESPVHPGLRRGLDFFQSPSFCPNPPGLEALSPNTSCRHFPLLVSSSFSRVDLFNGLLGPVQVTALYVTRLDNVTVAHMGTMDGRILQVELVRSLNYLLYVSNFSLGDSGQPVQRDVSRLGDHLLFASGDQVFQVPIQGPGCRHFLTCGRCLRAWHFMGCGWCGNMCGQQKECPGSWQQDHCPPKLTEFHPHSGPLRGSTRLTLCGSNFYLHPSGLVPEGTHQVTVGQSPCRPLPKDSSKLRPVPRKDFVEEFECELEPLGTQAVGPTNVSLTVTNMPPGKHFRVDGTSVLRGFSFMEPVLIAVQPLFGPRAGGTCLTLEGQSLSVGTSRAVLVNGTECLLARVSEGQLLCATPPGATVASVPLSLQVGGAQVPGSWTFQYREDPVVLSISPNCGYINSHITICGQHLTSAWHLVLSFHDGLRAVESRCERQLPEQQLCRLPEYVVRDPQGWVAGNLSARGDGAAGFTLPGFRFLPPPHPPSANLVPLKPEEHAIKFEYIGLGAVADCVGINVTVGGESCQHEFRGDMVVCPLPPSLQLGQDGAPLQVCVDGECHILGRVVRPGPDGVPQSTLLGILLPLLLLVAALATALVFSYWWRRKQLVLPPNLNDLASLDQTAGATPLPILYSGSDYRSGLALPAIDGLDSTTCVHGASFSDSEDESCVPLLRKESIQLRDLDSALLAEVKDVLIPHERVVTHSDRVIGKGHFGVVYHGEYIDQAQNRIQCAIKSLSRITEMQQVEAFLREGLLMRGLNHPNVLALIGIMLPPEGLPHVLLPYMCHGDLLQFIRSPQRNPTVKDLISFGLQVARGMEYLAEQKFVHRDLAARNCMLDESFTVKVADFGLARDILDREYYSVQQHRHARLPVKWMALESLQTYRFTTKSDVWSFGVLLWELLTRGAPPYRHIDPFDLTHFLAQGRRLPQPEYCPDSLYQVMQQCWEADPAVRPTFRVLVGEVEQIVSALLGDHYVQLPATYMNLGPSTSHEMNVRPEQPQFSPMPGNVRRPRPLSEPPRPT
# T1 sequence (P68400 whole entry): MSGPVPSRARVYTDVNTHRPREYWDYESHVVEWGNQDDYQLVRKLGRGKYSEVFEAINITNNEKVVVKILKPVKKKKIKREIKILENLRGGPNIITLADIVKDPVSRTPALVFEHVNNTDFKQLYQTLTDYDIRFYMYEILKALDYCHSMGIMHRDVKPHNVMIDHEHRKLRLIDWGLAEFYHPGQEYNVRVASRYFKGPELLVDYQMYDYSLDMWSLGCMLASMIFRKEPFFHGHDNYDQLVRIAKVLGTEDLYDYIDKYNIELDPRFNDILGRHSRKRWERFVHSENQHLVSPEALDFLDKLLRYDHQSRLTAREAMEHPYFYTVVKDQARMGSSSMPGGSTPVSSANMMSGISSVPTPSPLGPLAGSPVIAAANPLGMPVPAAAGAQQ
# T3 sequence (P36507 whole entry): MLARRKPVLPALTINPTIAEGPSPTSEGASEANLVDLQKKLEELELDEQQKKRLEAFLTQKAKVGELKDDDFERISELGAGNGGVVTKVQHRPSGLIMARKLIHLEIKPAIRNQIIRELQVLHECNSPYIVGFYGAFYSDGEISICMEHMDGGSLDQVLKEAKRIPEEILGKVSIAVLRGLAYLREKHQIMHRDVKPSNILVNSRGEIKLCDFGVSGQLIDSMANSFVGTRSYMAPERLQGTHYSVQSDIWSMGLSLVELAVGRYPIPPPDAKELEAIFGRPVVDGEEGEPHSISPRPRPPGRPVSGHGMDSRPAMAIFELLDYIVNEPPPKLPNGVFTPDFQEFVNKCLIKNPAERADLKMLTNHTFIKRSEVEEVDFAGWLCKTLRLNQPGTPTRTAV
compound,measurement,setting,value
Cc1cnc(N[C@H]2CC[C@H](N)CC2)nc1-c1cnc2ccc(-c3ccccc3)cn12 [CDDD11-8],remaining activity at 1 µM,CK2a,80.3%
same,remaining activity at 1 µM,SNRK,100%
same,remaining activity at 1 µM,MEK2,79.1%
same,remaining activity at 1 µM,DCAMKL2,108%
same,remaining activity at 1 µM,DYRK4,93.6%
same,remaining activity at 1 µM,CDK17/cyclin Y (PCTK2),34.1%
same,remaining activity at 1 µM,RON/MST1R,97.9%
same,remaining activity at 1 µM,PLK3,109%
same,remaining activity at 1 µM,RET,84.4%
same,remaining activity at 1 µM,SIK2,35.8%
same,remaining activity at 1 µM,PIM1,65%
same,remaining activity at 1 µM,CDK1/cyclin B,69.5%
same,remaining activity at 1 µM,MLK2/MAP3K10,76.5%
same,remaining activity at 1 µM,EPHB2,80.2%
same,remaining activity at 1 µM,OSR1/OXSR1,101%
same,remaining activity at 1 µM,CDK3/cyclin E,77.9%
same,remaining activity at 1 µM,WNK2,94.5%
same,remaining activity at 1 µM,MARK1,46.6%
same,remaining activity at 1 µM,CAMKK1,76.5%
same,remaining activity at 1 µM,MEK5,99.6%
same,remaining activity at 1 µM,EPHA2,86.4%
same,remaining activity at 1 µM,MYO3A,87.3%
same,remaining activity at 1 µM,TYK2,93.2%
same,remaining activity at 1 µM,c-MER,52.3%
same,remaining activity at 1 µM,PLK2,97.5%
same,remaining activity at 1 µM,TRKA,14.2%
same,remaining activity at 1 µM,GSK3b,94.5%
same,remaining activity at 1 µM,FGFR2,72.5%
same,remaining activity at 1 µM,RAF1,98.1%
same,remaining activity at 1 µM,RSK1,56.9%
